In publication PMC9385671 (Nature Communications, 2022):
Values joined by “and” are separate entries in the source; they are usually repeats but may differ in a detail not shown here. Equal values may be shown once. Read-outs that look alike come from different tables or passages of the source.

What was measured:
MjTyrRS variants [1] = target: T1, MjTyrRS variants (Methanocaldococcus jannaschii, UniProt Q57834, D158A/F108Q/H70G/L162N/L65E/Q109C/Y32G); assay: Intact cell fluorescence assay of HYs incorporation into SUMO-sfGFP; format: cell-based; conditions: for Fluorescence Instensity: Synthetase B48RS
T1 construct: expressed in transfected cells
Method: (§1) The intact cell fluorescence assay was performed to approximately compare the Br2Y and Cl2Y incorporation efficiency of screened MjTyrRSs as well as to estimate their promiscuity against other Tyr analogues. Since the gene expression of SUMO-sfGFP was driven by T5 promoter on the one round positive selection plasmid, SUMO-sfGFP can be directly expressed in DH10b strain. […] Next day, an overnight culture was inoculated in a well at a ratio of 1:100 containing 300 μL TB medium supplemented with 50 μg/mL Kan,100 μg/mL Amp, 0.5 mM IPTG as well as 1 mM HYs while the corresponding control lacked the HYs. Cells were grown in 96 well plates (Ibidi) with orbital shaking (2 mm amplitude) for 24 h at 37 °C covered with a gas-permeable foil (Sigma Aldrich, Taufkirchen, Germany). […] After 24 h incubation, the optimal density and fluorescence was measured via top reading after the gas-permeable foil was removed. Each measurement was done in triplicate.

MjTyrRS variants [2] = target: T2, MjTyrRS variants (Methanocaldococcus jannaschii, UniProt Q57834, D158A/F108N/H70G/L162C/L65E/Y32V); assay: as above; format: cell-based; conditions: Synthetase C64RS
T2 construct: expressed in transfected cells
Method: as §1

MjTyrRS variants [3] = assay: as above; format: cell-based, Methanocaldococcus jannaschii
Method: as §1

[4] = Side-chain acidity: pKa by 1H NMR titration of free amino acids; format: physicochemical; conditions: for pKa: aqueous KH2PO4 solution titrated with sodium hydroxide; for pKa of the phenolic side-chain: experimental error ±0.15
Method: 10–20 mg of an amino acid, 50 mg of KH2PO4 was dissolved in 15 ml of water and titrated by sodium hydroxide solution to distinct pH values. 500 μl were taken to NMR tubes, 50 μl deuterium oxidewas added and ^1H NMR spectra were measured using W5 pulse tray water suppression at 500 MHz frequency. The chemical shifts were plotted against pH and analyzed using Henderson-Hasselbalch equation to deliver the pKa values. Experimental error ±0.15.

FtsZ-YFP-mts = FtsZ-YFP-mts (Escherichia coli, UniProt P0A9A6); set-up: made in house; host or cells: E. coli BL21(DE3) for the wild type; conditions: intensity line profile
Method: 1,2-dioleoyl-sn-glycero-3-phosphocholine (DOPC):1,2-dioleoyl-sn-glycero-3-phospho-(1’-rac-glycerol) (DOPG), 70:30 mol % mixture, was dissolved in chloroform in a quartz container, then dehumidified under a gas nitrogen stream. Chloroform traces were further removed through desiccation (1 h). Afterwards, the lipid film was hydrated to a final concentration of 4 mg/ml in supported lipid bilayers (SLB) buffer (50 mM Tris-HCl at pH 7.5, 150 mM KCl), and incubated at 37 °C for 30 min. The lipid film was then completely resuspended by vortexing rigorously to obtain multilamellar vesicles of different sizes. This mixture was then placed in a bath sonicator where shear forces help to reduce the size of the vesicles, giving rise to small unilamellar vesicles (SUVs). The SUV dispersion were stored at −20 °C as 20 µl aliquots.
Glass coverslips (1.5#, 24 x 24 mm) were cleaned by piranha solution overnight, followed by extensive washing with milliQ H2O. Then glass coverslips were blown dry with compressed air. The reaction chamber was prepared by attaching a plastic ring on a cleaned glass coverslip using ultraviolet glue (Thorlabs No. 68). For supported lipid bilayer formation, the SUV dispersion was diluted in SLB buffer to 0.5 mg/ml, of which 75 µl was added to the reaction chamber. Adding CaCl2 to a final concentration of 3 mM induced fusion of the vesicles and the formation of a lipid bilayer on coversilde. After 20 min of incubation at 37 °C, the sample was rinsed with 2 ml pre-warmed SLB buffer.
Polymerization was induced by adding 4 mM GTP.
The UltimateFocus feature of DeltaVision Elite maintains the focus plane constant in time. […] Fluorescence imaging was performed using a standard FITC filter set. Images were acquired with a PCO sCMOS 5.5 camera (PCO, Germany) controlled by the softWoRx Software (GE Healthcare Life Sciences, Germany). For time-lapse experiments, images were acquired every 3 s with a 0.05 s exposure time and light illumination shuttered between acquisitions.

[5] = experimental error ±0.15, read-out: Ammonium pKa
[6] = experimental error ±0.15, read-out: pKa of the phenolic side-chain

FtsZ-YFP-mts, sequence (P0A9A6 1-366): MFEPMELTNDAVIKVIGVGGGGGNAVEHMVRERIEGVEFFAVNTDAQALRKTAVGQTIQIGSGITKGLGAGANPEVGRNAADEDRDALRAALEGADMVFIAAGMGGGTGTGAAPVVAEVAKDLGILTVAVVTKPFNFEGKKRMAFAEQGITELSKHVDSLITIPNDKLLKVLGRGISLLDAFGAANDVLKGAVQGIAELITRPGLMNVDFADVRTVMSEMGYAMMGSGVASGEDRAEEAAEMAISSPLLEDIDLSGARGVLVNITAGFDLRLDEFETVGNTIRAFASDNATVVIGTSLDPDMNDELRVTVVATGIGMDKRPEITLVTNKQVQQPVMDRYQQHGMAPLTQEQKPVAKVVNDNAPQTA
T1 sequence (Q57834 whole entry Y32G/L65E/H70G/F108Q/Q109C/D158A/L162N): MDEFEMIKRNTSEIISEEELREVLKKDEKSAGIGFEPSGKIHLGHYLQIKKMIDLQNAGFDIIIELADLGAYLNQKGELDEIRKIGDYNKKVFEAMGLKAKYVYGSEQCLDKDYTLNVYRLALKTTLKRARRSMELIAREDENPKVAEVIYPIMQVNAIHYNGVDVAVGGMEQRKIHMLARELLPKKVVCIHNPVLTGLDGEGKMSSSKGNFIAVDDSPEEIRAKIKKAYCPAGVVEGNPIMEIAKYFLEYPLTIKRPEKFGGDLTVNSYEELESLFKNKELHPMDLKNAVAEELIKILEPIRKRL
T2 sequence (Q57834 whole entry Y32V/L65E/H70G/F108N/D158A/L162C): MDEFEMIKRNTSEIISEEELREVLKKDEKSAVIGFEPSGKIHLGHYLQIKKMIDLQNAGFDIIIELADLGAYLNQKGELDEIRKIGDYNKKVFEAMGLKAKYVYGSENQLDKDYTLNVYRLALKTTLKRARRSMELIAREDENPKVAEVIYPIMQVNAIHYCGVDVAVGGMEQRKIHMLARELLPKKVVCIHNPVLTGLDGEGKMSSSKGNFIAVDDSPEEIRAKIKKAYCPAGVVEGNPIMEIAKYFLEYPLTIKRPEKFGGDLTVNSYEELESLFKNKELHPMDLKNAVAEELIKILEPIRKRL

N[C@@H](Cc1cc(Cl)c(O)c(Cl)c1)C(=O)O [Cl2Y, 3,5-dichloro-L-tyrosine]
Fluorescence Instensity (MjTyrRS variants [1]): 0.5689 a.u. and 0.6362 a.u. and 0.4688 a.u. | Incorporation efficiency (sfGFP fluorescence) versus control without HYs additions (MjTyrRS variants [1]; mutant B48RS, 1 mM HY, E. coli DH10b): more than 100 fold | Fluorescence Instensity (MjTyrRS variants [2]): 0.3285 a.u. and 0.3594 a.u. and 0.2924 a.u. | Fluorescence Instensity (MjTyrRS variants [3]; Synthetase B4RS): 0.07529 a.u. and 0.09709 a.u. and 0.05112 a.u. | Fluorescence Instensity (MjTyrRS variants [3]; Synthetase B12RS): 0.3851 a.u. and 0.4746 a.u. and 0.2926 a.u. | Fluorescence Instensity (MjTyrRS variants [3]; Synthetase B37RS): 0.3145 a.u. and 0.3721 a.u. and 0.2575 a.u. | Fluorescence Instensity (MjTyrRS variants [3]; Synthetase B39RS): 0.2554 a.u. and 0.3069 a.u. and 0.2029 a.u. | Fluorescence Instensity (MjTyrRS variants [3]; Synthetase C5RS): 0.7019 a.u. and 0.7995 a.u. and 0.5915 a.u. | Fluorescence Instensity (MjTyrRS variants [3]; Synthetase C45RS): 0.8209 a.u. and 0.9248 a.u. and 0.7159 a.u. | Fluorescence Instensity (MjTyrRS variants [3]; Synthetase C61RS): 0.5873 a.u. and 0.6501 a.u. and 0.5303 a.u. | pKa [4, 5]: 9.4 | pKa [4, 6]: 6.5 | pKa of the phenolic side-chain [4]: 6.52

N[C@@H](Cc1ccc(O)c(Cl)c1)C(=O)O [ClY, 3-chloro-L-tyrosine]
Fluorescence Instensity (MjTyrRS variants [1]): 0.5472 a.u. and 0.654 a.u. and 0.4364 a.u. | Fluorescence Instensity (MjTyrRS variants [2]): 0.3514 a.u. and 0.3883 a.u. and 0.3147 a.u. | Fluorescence Instensity (MjTyrRS variants [3]; Synthetase B12RS): 0.3856 a.u. and 0.4561 a.u. and 0.2986 a.u. | Fluorescence Instensity (MjTyrRS variants [3]; Synthetase B37RS): 0.2734 a.u. and 0.2944 a.u. and 0.2525 a.u. | Fluorescence Instensity (MjTyrRS variants [3]; Synthetase C5RS): 0.8727 a.u. and 1 a.u. and 0.7434 a.u. | Fluorescence Instensity (MjTyrRS variants [3]; Synthetase C45RS): 0.8577 a.u. and 0.9724 a.u. and 0.7484 a.u. | Fluorescence Instensity (MjTyrRS variants [3]; Synthetase C61RS): 0.5458 a.u. and 0.6071 a.u. and 0.5015 a.u. | pKa [4, 5]: 9.5 | pKa [4, 6]: 8.3 | pKa of the phenolic side-chain [4]: 8.31

N[C@@H](Cc1ccc(O)cc1)C(=O)O [Y, tyrosine]
Gray value (FtsZ-YFP-mts; Distance(um) 5.15845): 0.2436 | Gray value (FtsZ-YFP-mts; Distance(um) 5.17427): 0.2678 | Gray value (FtsZ-YFP-mts; Distance(um) 5.1901): 0.2809 | Gray value (FtsZ-YFP-mts; Distance(um) 5.20592): 0.2851 | Gray value (FtsZ-YFP-mts; Distance(um) 5.22175): 0.3113 | Gray value (FtsZ-YFP-mts; Distance(um) 5.23757): 0.3327 | Gray value (FtsZ-YFP-mts; Distance(um) 5.25339): 0.3531 | Gray value (FtsZ-YFP-mts; Distance(um) 5.26922): 0.3835 | Gray value (FtsZ-YFP-mts; Distance(um) 5.28504): 0.428 | Gray value (FtsZ-YFP-mts; Distance(um) 5.30086): 0.443 | Gray value (FtsZ-YFP-mts; Distance(um) 5.31669): 0.4411 | Gray value (FtsZ-YFP-mts; Distance(um) 5.33251): 0.4633 | Gray value (FtsZ-YFP-mts; Distance(um) 5.34833): 0.4809 | Gray value (FtsZ-YFP-mts; Distance(um) 5.36416): 0.4782 | Gray value (FtsZ-YFP-mts; Distance(um) 5.37998): 0.498 | Gray value (FtsZ-YFP-mts; Distance(um) 5.3958): 0.5435 | Gray value (FtsZ-YFP-mts; Distance(um) 5.41163): 0.5554 | Gray value (FtsZ-YFP-mts; Distance(um) 5.42745): 0.5565 | Gray value (FtsZ-YFP-mts; Distance(um) 5.44327): 0.5888 | Gray value (FtsZ-YFP-mts; Distance(um) 5.4591): 0.6168 | Gray value (FtsZ-YFP-mts; Distance(um) 5.47492): 0.6475 | Gray value (FtsZ-YFP-mts; Distance(um) 5.49074): 0.6743 | Gray value (FtsZ-YFP-mts; Distance(um) 5.50657): 0.698 | Gray value (FtsZ-YFP-mts; Distance(um) 5.52239): 0.7626 | Gray value (FtsZ-YFP-mts; Distance(um) 5.53821): 0.7361 | Gray value (FtsZ-YFP-mts; Distance(um) 5.55404): 0.7938 | Gray value (FtsZ-YFP-mts; Distance(um) 5.56986): 0.8828 | Gray value (FtsZ-YFP-mts; Distance(um) 5.58569): 0.899 | Gray value (FtsZ-YFP-mts; Distance(um) 5.60151): 0.8493 | Gray value (FtsZ-YFP-mts; Distance(um) 5.61733): 0.8767 | Gray value (FtsZ-YFP-mts; Distance(um) 5.63316): 0.9446 | Gray value (FtsZ-YFP-mts; Distance(um) 5.64898): 1 | Gray value (FtsZ-YFP-mts; Distance(um) 5.6648): 0.9652 | Gray value (FtsZ-YFP-mts; Distance(um) 5.68063): 0.9584 | Gray value (FtsZ-YFP-mts; Distance(um) 5.69645): 0.9755 | Gray value (FtsZ-YFP-mts; Distance(um) 5.71227): 0.9816 | Gray value (FtsZ-YFP-mts; Distance(um) 5.7281): 0.9099 | Gray value (FtsZ-YFP-mts; Distance(um) 5.74392): 0.8492 | Gray value (FtsZ-YFP-mts; Distance(um) 5.75974): 0.8638 | Gray value (FtsZ-YFP-mts; Distance(um) 5.77557): 0.7917 | Gray value (FtsZ-YFP-mts; Distance(um) 5.79139): 0.7498 | Gray value (FtsZ-YFP-mts; Distance(um) 5.80721): 0.6513 | Fluorescence Instensity (MjTyrRS variants [1]): 0.00506 a.u. and 0.00513 a.u. and 0.00494 a.u. | Fluorescence Instensity (MjTyrRS variants [2]): 0.01243 a.u. and 0.01248 a.u. and 0.01236 a.u. | Fluorescence Instensity (MjTyrRS variants [3]; Synthetase B4RS): 0.06037 a.u. and 0.07682 a.u. and 0.04915 a.u. | Fluorescence Instensity (MjTyrRS variants [3]; Synthetase B37RS): 0.1466 a.u. and 0.1756 a.u. and 0.1118 a.u. | Fluorescence Instensity (MjTyrRS variants [3]; Synthetase B39RS): 0.1833 a.u. and 0.2205 a.u. and 0.1319 a.u. | Fluorescence Instensity (MjTyrRS variants [3]; Synthetase C5RS): 0.01571 a.u. and 0.01574 a.u. and 0.0156 a.u.
